The values that follow come from patent US6153589A, “2,3-epoxy alcohols, acids and derivatives as anti retroviral chemotherapeutic agents” (The United States of America as represented by the …, priority 1992, dated 2000).

In one data set the test system is Murine Leukemia Virus. Particulars: in vitro; literature report; cited from earlier work.
For data set [1] the following is noted: literature report; cited from earlier work.
The test system of the next data set is Rous Sarcoma Virus. Particulars: in vitro; literature report; cited from earlier work.
The next data set addresses T1, porcine Renin (Sus scrofa, UniProt A0A287APG1).
T1 construct: purchased Sigma
The data set is described as follows: Porcine Renin cleavage of porcine tetradecapeptide (HPLC). Format: biochemical. The note with it: 0.5 μl of 50 μg/μl inhibitor in DMSO in 50 μl; pH 6.00, room temperature, 70 min; relative to uninhibited control. The text has this:
Renin Activity: Porcine Renin Cleavage of Porcine Tetradecapeptide
Proteolytic enzymes are ubiquitous in many living systems. Renin is an asparxyl protease found in mammals which is responsible for the regulation of blood pressure. Structural and functional similarities between Renin and retroviral proteases have been previously noted (Pearl, L. H., Taylor, W. R., (1987) Nature, 329, 351-354). Consequently, successful therapeutic inhibition of retroviral proteases depends on the ability of the inhibitor to inhibit the retroviral enzyme while having a greatly diminished effect on normally occurring enzymes like Renin. The failure to inhibit the desired enzyme selectively may have an adverse effect on normal biochemical functions. The similarity of Renin to retroviral proteases and its viral normal bodily function makes it an attractive system in which to examine inhibitory selectivity.
Renin activity was determined by a method similar to that described above for the HIV protease. A solution containing 0.37 m unit (0.5 μl of stock solution containing 0.75 m unit/μl) of porcine Renin (Sigma) was added to 5 μg of porcine angiotensinogen in 50 μl of 0.1 M citrate-phosphate buffer (pH 6.00) containing 0.25% NP-40. A DMSO solution containing the inhibitor (0.5 μl of a 50 μg/μl solution) was added and the reaction was allowed to incubate at room temperature for 70 min. The entire mixture was analyzed by HPLC chromatographic analysis was perforemd on a 4.6×250 mm Lichrosorb RP-18 column eluting with a gradient of 0-50% acetonitrile in 0.02 M KH2 Po4 (pH 4.7) over 30 min monitoring absorbance at 206 nm. Appearance of both the tetrapeptide and the decapeptide products may be monitored under these conditions. Enzyme activity is expressed as the amount of tetrapeptide produced relative to an uninhibited control, and are summarized in Table 3 below.

Another data set has as its system fatty acid synthesis. Particulars: literature report; cited from earlier work.
A further data set concerns HIV infected cells. The note with it: literature report; cited from earlier work.
A further data set deals with HIV-2 protease. The data set is described as follows: HIV protease cleavage of nonapeptide (HPLC). Format: biochemical. The note with it: 0.5 μl of 10 μg/μl inhibitor in DMSO per 10 μl reaction; pH 6.5, room temperature; pentapeptide product relative to DMSO control; sampled at ca. 16 and 40 hr (time not given). An outline of the steps: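 Nonapeptide substrate Val-Ser-Gln-Asn-Tyr-Pro-Ile-Val-Gln-NH2 incubated with protease (ca. 100 ng) in 200 mM sodium phosphate, 1 M NaCl, 5% glycerol, 0.25% NP-40, pH 6.5, at room temperature with inhibitor added from a 10 μg/μl DMSO stock. Samples taken at ca. 16 and 40 h; RP-HPLC (206 nm) measured pentapeptide product relative to DMSO control.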

T1 sequence (A0A287APG1 24-407): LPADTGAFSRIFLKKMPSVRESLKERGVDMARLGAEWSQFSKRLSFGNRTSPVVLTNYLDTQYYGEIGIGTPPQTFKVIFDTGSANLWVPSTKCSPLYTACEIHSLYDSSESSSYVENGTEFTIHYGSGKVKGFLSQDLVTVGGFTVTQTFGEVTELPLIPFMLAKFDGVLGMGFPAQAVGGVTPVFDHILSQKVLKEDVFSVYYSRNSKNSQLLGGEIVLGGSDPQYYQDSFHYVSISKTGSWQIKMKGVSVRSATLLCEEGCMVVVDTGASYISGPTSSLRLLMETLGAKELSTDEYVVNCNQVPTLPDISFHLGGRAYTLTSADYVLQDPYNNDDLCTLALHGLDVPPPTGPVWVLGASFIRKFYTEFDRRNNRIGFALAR

`C/C=C/C/C=C/CCC(=O)[C@H]1O[C@H]1C(N)=O` [Cerulenin, 4-Oxo-2R,3S-epoxy-trans,trans-2,5-dodecadienyl amide]: the “antiretroviral activity against Murine Leukemia Virus” value with Murine Leukemia Virus is “exhibit antiretroviral activity”. Further, the toxicity entry in data set [1] is “relatively high toxicity”. In the data set on Rous Sarcoma Virus, the “antiretroviral activity against Rous Sarcoma Virus” value is on record as “exhibit antiretroviral activity”. Besides, the “Percent control (tetrapeptide produced)” value on porcine Renin turned out to be 68%. The “inhibition of fatty acid synthesis” value in the data set with fatty acid synthesis is “potent inhibitor of fatty acid synthesis”. Moreover, the “inhibition of viral polyprotein processing” value with HIV infected cells was “inhibit viral polyprotein processing”. Moreover, the “Percent Control Cleavage of Nonapeptide HIV-1 Cleavage Site Fragment” value with HIV-2 protease is 10%.
